Read-outs that look alike come from different tables or passages of the source. Blank lines part the entries; values can stand above or below the compound they belong to.
What was measured:
PKA activity [1] = assay: AKAR single-cell live imaging in HEK-293 cells; format: cell-based; details: for AKAR3 response in single cell imaging: HEK-293, 10 μM epinephrine, 50 μM ritodrine, IBMX alone
Description: Cell Culture and Imaging. HEK-293 cells were plated onto sterilized glass coverslips in 35 mm dishes and grown to ˜50% confluency in DMEM (10% FBS at 37° C. with 5% CO2). Cells were transfected with calcium phosphate and grown for 12-24 hours before imaging. After washing once with Hanks' balanced salt solution (HBSS), cells were maintained in buffer in the dark at 20-25° C. Isoproterenol (ISO; Sigma), forskolin (Fsk; Calbiochem), H89 (Sigma) were added as indicated. Cells were imaged on a Zeiss Axiovert 200M microscope with a 40×/1.3NA oil-immersion objective lens and cooled CCD camera as described in (21). Briefly, dual emission ratio imaging used a 420DF20 excitation filter, a 450DRLP dichroic mirror, and two emission filters (475DF40 for cyan and 535DF25 for yellow). The ratios of yellow-to-cyan (for AKAR) or cyan-to-yellow (for ICUE) emissions were then calculated at different time points and normalized by dividing all ratios by the emission ratio before stimulation, setting basal emission ratio as 1.
One of the important advantages of genetically encoded reporters of the invention is that they can be targeted to subcellular locations via various targeting motifs. However, in some cases, subcellular targeting may sacrifice the response amplitude of a reporter. To determine whether the improved dynamic range of AKAR3 leads to sensitive detection of subcellular PKA activities, AKAR3 was targeted to two cellular compartments.

cAMP [2] = assay: ICUE single cell imaging, ISO stimulation in the presence of IBMX; format: cell-based; details: FIG. 3e, read-out: inhibition of ISO-stimulated ICUE response
Description: FIG. 3. High-throughput screening. FIG. 3A, normalized emission ratio (yellow/cyan) from cells expressing AKAR3 treated with individual library compounds, compared to the negative control in which only buffer was added and the positive control in which ISO (250 nM) was added (agonist screen). Individual bars along the X axis represent individual library compounds. The asterisks indicate responses of ritrodrine, ISO, and epinephrine. FIG. 3B, normalized emission ratio (yellow/cyan) from cells expressing AKAR3 first treated with individual library compounds for about 15 minutes, then stimulated by ISO (250 nM) (antagonist screen). The positive control in which only ISO was added and the negative control in which only buffer was added are shown as labeled. Individual bars along the X axis represent individual library compounds. The asterisks indicate responses from epinephrine and propranolol treated cells in response to ISO. FIG. 3C, representative time courses of emission ratio (yellow/cyan) change of cells expressing AKAR3 treated with 10 μM epinephrine followed by 50 μM FSK in single-cell imaging experiments. […]
Cell Culture and Imaging. […] The ratios of yellow-to-cyan (for AKAR) or cyan-to-yellow (for ICUE) emissions were then calculated at different time points and normalized by dividing all ratios by the emission ratio before stimulation, setting basal emission ratio as 1. […]

PKA activity [3] = assay: AKAR3 high-throughput screening of Johns Hopkins Clinical Compound Library; format: cell-based; details: for agonist screen: AKAR response to compound alone: 10 μM, hit = larger than 6 times the standard deviation above negative control
Description: Live Cell High-Throughput Screening. […] After incubation for 24 hours, cells were washed once with HBSS and left in 190 μl of HBSS at 20-25° C. Fluorescence readings were taken as described above, with each cycle lasting 90 seconds. Following baseline acquisition, cells in each experimental well were treated with a compound from the Johns Hopkins Clinical Compound Library to a final concentration of 10 μM. Control cells were treated with 10 μL of 10% fetal bovine serum (FBS) in a solution of phosphate buffered saline (PBS) at pH 7.4, which is the solution used to dissolve library compounds.
Ten final cycles were then performed.
FRET responses were calculated as described above. […] Agonist hits were defined as compounds eliciting responses larger than six times the standard deviation above the baseline. Antagonist hits were defined as compounds which decreased the ISO stimulated response by 50% or by six times the standard deviation.
In a primary screening, 160 compounds from the Johns Hopkins Clinical Compound Library were added to AKAR3-expressing HEK-293 cells in individual wells of 96-well plates to a final concentration of 10 μM after a base line reading. Time courses were recorded to monitor any fluorescence changes upon drug addition and to identify hits which activate PKA as potential agonists.
Potential agonists were identified by selecting compounds which stimulated emission ratio changes larger than 6 times the standard deviation above the negative control (FIG. 3a ).

catalytic subunit of PKA = catalytic subunit of PKA (Homo sapiens, UniProt P17612); assay: In vitro kinase assay with purified AKAR3 protein; format: biochemical; details: n=2
Description: FIG. 7. Further characterization of AKAR3. Representative time courses of plasma membrane-targeted AKAR3 (FIG. 7a ) and nuclear-targeted AKAR3 (FIG. 7b ) in HEK-293 cells stimulated with 1 μM ISO and 50 μM FSK, respectively. FIG. 7c , AKAR3-expressing HEK-293 cells were treated with 200 nM phorbol dibutyrate (PDBu), a protein kinase C activator, followed by the addition of 1 μM isoproterenol, then 50 μM forskolin. FIG. 7d , representative time courses of the emission ratio change of AKAR3 in the presence (closed squares) and absence (open circles) of the specific PKA inhibitor, PKI. FIG. 7e , emission spectra of the purified AKAR3 before (squares) and after (diamonds) phosphorylation by PKA (excitation 434 nm). The curve using triangle symbols depicts the spectrum of the reporter after digestion with trypsin to quench the energy transfer and quantify the FRET. FIG. 7f , a representative phosphorylation time course for purified AKAR3 protein in the presence of PKA catalytic subunit and 1 mM ATP.
Lastly, in vitro kinase assays were carried out using purified AKAR3 protein from mammalian cell lysates.

PKA activity [4] = assay: AKAR3 live cell 96-well plate reader assay (yellow/cyan emission ratio); format: cell-based; details: for increase in yellow-to-cyan emission ratio of AKAR3: HEK-203 (sic) cells expressing AKAR3, 96-well plate, n=3
Description: (§1) Live Cell Plate Reading. HEK-293 cells were transfected with AKAR3 or ICUE3 using calcium phosphate at 40% confluency and grown for 40 hours. Cells were then trypsinized and plated in a Costar 3603 96-well plate (Corning) at a density of 150,000 cells per well. After incubation for another 24 hours, cells were washed once with HBSS and left in 150 μl of HBSS at 20-25° C. Fluorescence reading was taken on a FLUOstar OPTIMA fluorescence microplate reader (BMG Labtechnologies Inc.) using a 420DF20 excitation filter and two emission filters (470DF40 for cyan and 535DF25 for yellow). A baseline was established in three cycles, each consisting of a full plate reading of yellow intensity, followed by a reading of cyan intensity.
(§2) Each cycle lasted between 64 and 92 seconds. Cells were then treated with ISO, Fsk, H89, Propranolol (Pro; Sigma), or 3-isobutyl-1-methylxanthine (IBMX; Sigma) as indicated. Readings were taken in additional cycles. FRET change was calculated as the percent increase of emission ratios (yellow-to-cyan for AKAR and cyan-to-yellow for ICUE) over baseline for each well during a given cycle. Several parameters were calculated to assess the efficiency of the assay, including Z′ factor, coefficient of variation, and signal to noise (S/N) ratio (22).
AKAR2 (FIG. 4). This reporter, AKAR3 (FIG. 1b), was tested in a 96-well plate format. […] As negative controls, addition of buffer of 2% DMSO generated minimal changes in emission ratios. This 96-well plate assay was sensitive and reproducible, with a signal to noise ratio of 30.3, a Z′ factor of 0.84, and a coefficient of variation (CV) of 1.8% for the Fsk-stimulated response.
To provide specific readout of compartmentalized PKA activities, we introduced a C-terminal nuclear export signal (NES) to AKAR3 . In the plate reader assay using AKAR3 -NES (FIG. 1d), cytosolic PKA activity was recorded without contamination of nuclear activity, which has slower kinetics due to diffusional translocation of the catalytic subunit from cytosol to nucleus. […] Thus, sensor targeting provides increased temporal and spatial resolution and can be used to reveal how individual signaling microdomains, such as kinase-containing signaling complexes, are affected by drugs or other perturbations, adding another level of capacity to the non-image-based high-throughput assays of the invention.

cAMP [5] = assay: ICUE3 live cell high-throughput cAMP plate reader assay (cyan/yellow emission ratio); format: cell-based
Description: as §1, §2
To follow the activity of the signaling pathway and to assay related drug targets in parallel, we developed a live cell-based high-throughput assay for cAMP, a second messenger that is generated via activation of Gs-coupled GPCRs and exerts its effects by activating PKA and other effectors. Similar improvement approaches were first applied to create a reporter that more than doubled the response of previous “Indicator for cAMP Using Epac” (ICUE), which generates a decrease in FRET upon binding of cAMP (FIG. 5). […] Possible sources of the variation and reduced signal are transfection efficiency and expression variability.

Compound: AKAR3.2: PKA reporter fusion protein SEQ ID NO:4: cerulean fluorescent protein, FHA1, SEQ ID NO:3, circularly permuted YFP variant
dynamic range of the reporter (PKA activity [1]): 55-65%

Compound: C=CC1=C(C)/C(=C/c2[nH]c(Cc3[nH]c(/C=C4\NC(=O)C(C)=C4C=C)c(C)c3CCC(=O)O)c(CCC(=O)O)c2C)NC1=O [bilirubin]
inhibition at 1 µM (cAMP [2]; 1 μM bilirubin): 40%
inhibition at 10 µM (cAMP [2]; 10 μM bilirubin): > 60%

Compound: CC(NCCc1ccc(O)cc1)C(O)c1ccc(O)cc1 (stereo not shown) [ritodrine]
AKAR3 response in single cell imaging (PKA activity [1]): moderate and gradual response
agonist screen: AKAR response to compound alone (PKA activity [3]): stimulated AKAR responses on their own

emission ratio increase after addition of ATP (catalytic subunit of PKA; purified AKAR3, PKA catalytic subunit, 1 mM ATP, approximately 40 minutes): 29.1%±1.11%
FRET efficiency after phosphorylation (catalytic subunit of PKA; quantified using trypsin): 47.2%±7.67%
FRET efficiency before phosphorylation (catalytic subunit of PKA; quantified using trypsin): 38.8%±7.36%
Compound: AKAR3: PKA reporter fusion protein SEQ ID NO:1: ECFP 1-227, FHA1, PKA substrate linker SEQ ID NO:3, circularly permuted Venus
increase in emission ratio (yellow over cyan) of the reporter (PKA activity [1]): about 40%

Compound: O=S(=O)(NCCNC/C=C/c1ccc(Br)cc1)c1cccc2cnccc12 [H89]
effect on AKAR3 response (PKA specificity) (PKA activity [1]; PKI co-expression or H89 pretreatment): abolished
effect on Fsk-stimulated AKAR3 response (PKA activity [4]; FIG. 2d): diminished
effect on Fsk-stimulated ICUE3 response (cAMP [5]; FIG. 2c): increased the ICUE3 response

Compound: CC(C)NCC(O)c1ccc(O)c(O)c1 (stereo not shown) [ISO, isoproterenol]
average response of plasma membrane-targeted AKAR3 (PKA activity [1]; HEK-293, 1 μM ISO, n=3, FIG. 7a): 34.3%±5.4%
maximum response (emission ratio elevation) of AKAR3.2 (PKA activity [1]; HEK-293 cells expressing AKAR3.2, 1 μM ISO, FIG. 6): approximately 65%
emission ratio change with AKAR3-NES compared to the AKAR3 assay (PKA activity [4]; AKAR3-NES, plate reader, FIG. 1d): larger increase in emission ratio followed by a more rapid decrease
increase in yellow-to-cyan emission ratio of AKAR3 (PKA activity [4]): 22.1%±0.7%
agonist screen: AKAR response to compound alone (PKA activity [3]): stimulated AKAR responses on their own

Compound: CNC[C@H](O)c1ccc(O)c(O)c1 [epinephrine]
AKAR3 response in single cell imaging (PKA activity [1]): stimulates cAMP production and PKA activation
antagonist screen: effect on ISO-stimulated AKAR response (PKA activity [3]; 10 μM compound about 15 min, then 0.25 μM ISO): decreased the cell response to subsequent stimulation by ISO
agonist screen: AKAR response to compound alone (PKA activity [3]): stimulated AKAR responses on their own

Compound: CC(C)Cn1c(=O)n(C)c(=O)c2[nH]cnc21 [IBMX, 3-isobutyl-1-methylxanthine]
effect on ritodrine-stimulated AKAR3 response (PKA activity [1]; 100 μM IBMX after 50 μM ritodrine, FIG. 3d): enhanced
AKAR3 response in single cell imaging (PKA activity [1]): did not generate any AKAR responses
effect of supplementing on AKAR3 responses (PKA activity [4]; FIG. 2): sustained responses and increased their amplitude
effect of supplementing on ICUE3 responses (cAMP [5]; FIG. 2): sustained responses and increased their amplitude

Compound: C=C[C@@]1(C)CC(=O)[C@]2(O)[C@@]3(C)[C@@H](O)CCC(C)(C)[C@@H]3[C@H](O)[C@H](OC(C)=O)[C@@]2(C)O1 [Fsk, forskolin]
average nuclear response of nuclear-targeted AKAR3 (PKA activity [1]; HEK-293, 50 μM FSK, n=3, slower kinetics, FIG. 7b): 38.6%±8.45%
increase in yellow-to-cyan emission ratio of AKAR3 (PKA activity [4]): 25.7%±0.7%
Emax (cAMP [5]; stable cell line, read-out: maximum response of ICUE assay): 43.3%
Emax (cAMP [5]; transient transfection, Fsk in the presence of 100 μM IBMX, FIG. 2c, read-out: maximum response of ICUE3): 24.1%

— US8080235B2, “Protein kinase A reporters useful in high throughput assays” (The Johns Hopkins University, priority 2005, dated 2011)
